Several values for one entry are separate records, joined by “and”; a condition that tells them apart may be missing. Equal values may be shown once. Read-outs that look alike come from different tables or passages of the source.
What was measured:
[1] = target: T1, human α2β2γ1 complex, CBS3 mutant (V276G/L277G) (Homo sapiens, UniProt P54619+P54646, L277G/V276G); assay: Allosteric activation of CBS3 mutant human α2β2γ1 AMPK complex; format: biochemical
T1 construct: made in house; host or cells: Escherichia coli
Text: To study allosteric activation with a more well-defined AMPK complex, and to study the effects of mutations in individual adenine nucleotide-binding sites on the γ subunit, we expressed a human α2β2γ1 complex in Escherichia coli and purified it utilizing the polyhistidine tag at the N-terminus of the α2 subunit. […] However, it had not been co-expressed with an N-myristoyl transferase so would not have been N-myristoylated on the β2 subunit. The complex was expressed not only with the WT γ1 sequence but also with mutations affecting hydrophobic residues previously shown to be involved in binding of the adenine moieties of nucleotides at CBS1 (L129D/V130D), CBS3 (V276G/L277G) and CBS4 (I312G). All four complexes co-purified as heterotrimeric 1:1:1 complexes as expected, and were phosphorylated and activated equally well either by CaMKK2 or the LKB1: STRADα:MO25α complex (Supplementary Figure S2). For the studies described below we phosphorylated Thr172 using a GST-tagged CaMKK2 and repurified AMPK using size exclusion chromatography and a glutathione-Sepharose column, which remove CaMKK2.
Figure 4. Allosteric activation of WT and mutant human α2β2γ1 AMPK complex by AMP and ADP at three different concentrations of ATP. The α2β2γ1 complex was phosphorylated on Thr172 prior to assay using CaMKK2. The γ1 subunit was either (A/E): WT; (B/F): a CBS1 mutant (L129D/V130D); (C/G): a CBS3 mutant (V276G/L277G); (D/H): a CBS4 mutant (I312G). Results are means of duplicate assays ± SD; error bars are not shown if they were smaller than the symbols used for mean values. Assays and curve fitting were as in Figure 1 at either 0.2 mM (left panels) or 5 mM (right panels) ATP. Best-fit values for all parameters used to generate the curves are listed in Supplementary Table S1.
Sources of antibodies were as described: pThr172 (AMPK-α: Cell Signaling Technologies, Danvers, MA, U.S.A., Cat# 2535), AMPK-α2 [22]. Rat liver AMPK was purified as described previously. Plasmid encoding human (His)6-tagged AMPK (α2β2γ1, bacterially expressed) generated as in [23], was a gift from AstraZeneca, Cambridge, U.K. The L129D/V130D (CBS1), V276G/L277G (CBS3) and I312G (CBS4) mutations in the α2β2γ1 complex were generated using the Quikchange II site-directed mutagenesis kit (Agilent Technologies) and confirmed by DNA sequencing. Human GST-tagged α2 kinase domain (1–310), LKB1:STRAD-α:MO25-α complexes, GST-tagged CaMKK2 [26], and PPM1A (PP2Cα) were produced as described. Bacterially expressed heterotrimers were activated by phosphorylation of Thr172 by GST-tagged CaMKK2 in the presence of ATP, and CaMKK2 was subsequently removed by passage through glutathione-Sepharose. Human GST-tagged α2 kinase domain was activated in a similar manner except that human (His)6-tagged LKB1:STRAD-α:MO25-α complex was used and removed after activation via passage through a His-Trap column. Recombinant human 5′-nucleotidase, CD73, Cat # 5795-EN-01, was from R&D systems (Minneapolis, MN, U.S.A.).
AMPK assays measured the transfer of radioactivity from [γ-^33P]ATP to a peptide substrate, which was separated from unreacted ATP by binding to P81 paper. This assay was described previously except that we used [γ-^33P] rather than [γ-^32P]ATP. In some assays (specified in Figure legends) the concentration of ATP was increased from 0.2 to 1 or 5 mM ATP, with MgCl2 concentrations maintained at a constant 4.8 mM excess above the concentration of ATP [19]. Where allosteric activation by AMP or ADP was being studied, we used the SAMS peptide as substrate. For all other assays the AMARA peptide was used.

[2] = target: T2, human α2β2γ1 complex, CBS1 mutant (L129D/V130D) (Homo sapiens, UniProt P54619+P54646, L129D/V130D); assay: AMPK inactivation and Thr172 dephosphorylation by PPM1A, CBS1 mutant; format: biochemical; details: 300 µM nucleotide, absence of ATP
T2 construct: made in house; host or cells: Escherichia coli
Method: The relative roles of the three CBS sites in the other two mechanisms of activation of AMPK by AMP or ADP, i.e. promotion of Thr172 phosphorylation by LKB1, and protection against Thr172 dephosphorylation by protein phosphatases, have not been examined previously. As expected, incubation of the α2β2γ1 AMPK complex with a fixed, limiting amount of purified LKB1:STRADα:MO25α complex in the presence of 200 µM Mg.ATP^2− caused a large degree of activation (Figure 5A) and phosphorylation (Figure 5B) of AMPK (unphosphorylated α2β2γ1 complex), which were stimulated more than 2-fold by 300 µM AMP and 1.6-fold by 300 µM ADP.
Figure 6. Effects of AMP or ADP on AMPK inactivation and Thr172 dephosphorylation by PP2Cα (PPM1A). Human α2β2γ1 complexes (WT, or with L129D/V130D, V276G/L277G or I312G mutations affecting CBS1, CBS3 or CBS4 respectively), all phosphorylated on Thr172, were incubated with a fixed concentration of PP2Cα (PPM1A) in the presence or absence of AMP or ADP (both 300 µM) as described in the Materials and methods section. After the incubation, aliquots were withdrawn for (A) AMPK assay or (B) Western blots. […] For (B), due to a limit on the number of lanes that could be run on one gel, single replicates from the triplicate assays were analysed. […]

[3] = target: bacterially expressed AMPK heterotrimers (γ subunit CBS sites); details: cited from earlier work
[4] = in the presence of Mg2+ and staurosporine, read-out: estimated Kd at the CBS3 site

T1 sequence (P54619 whole entry V276G/L277G): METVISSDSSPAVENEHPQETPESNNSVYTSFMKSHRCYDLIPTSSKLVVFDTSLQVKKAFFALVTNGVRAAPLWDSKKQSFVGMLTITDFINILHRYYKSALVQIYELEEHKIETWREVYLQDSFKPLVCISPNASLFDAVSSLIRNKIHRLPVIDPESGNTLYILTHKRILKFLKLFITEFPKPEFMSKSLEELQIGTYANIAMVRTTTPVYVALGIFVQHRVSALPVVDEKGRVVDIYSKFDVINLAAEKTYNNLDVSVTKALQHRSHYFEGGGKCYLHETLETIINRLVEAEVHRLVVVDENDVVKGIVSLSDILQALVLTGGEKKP
T1 sequence (P54646 whole entry): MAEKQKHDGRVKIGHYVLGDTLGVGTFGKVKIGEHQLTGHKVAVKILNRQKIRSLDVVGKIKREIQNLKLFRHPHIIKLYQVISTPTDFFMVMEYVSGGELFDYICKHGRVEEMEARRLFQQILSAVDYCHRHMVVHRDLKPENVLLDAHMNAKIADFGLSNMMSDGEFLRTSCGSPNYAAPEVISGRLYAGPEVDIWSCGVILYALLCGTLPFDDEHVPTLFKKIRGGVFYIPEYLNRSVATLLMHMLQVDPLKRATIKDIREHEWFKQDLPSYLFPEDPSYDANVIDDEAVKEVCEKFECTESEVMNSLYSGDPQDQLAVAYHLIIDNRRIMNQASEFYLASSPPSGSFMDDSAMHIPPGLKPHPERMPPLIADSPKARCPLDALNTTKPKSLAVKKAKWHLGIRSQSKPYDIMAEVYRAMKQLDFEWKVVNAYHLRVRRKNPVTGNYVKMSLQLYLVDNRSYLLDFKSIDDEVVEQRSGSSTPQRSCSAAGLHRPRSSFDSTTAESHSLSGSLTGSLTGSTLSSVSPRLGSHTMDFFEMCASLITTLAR
T1 sequence (O43741 whole entry partner): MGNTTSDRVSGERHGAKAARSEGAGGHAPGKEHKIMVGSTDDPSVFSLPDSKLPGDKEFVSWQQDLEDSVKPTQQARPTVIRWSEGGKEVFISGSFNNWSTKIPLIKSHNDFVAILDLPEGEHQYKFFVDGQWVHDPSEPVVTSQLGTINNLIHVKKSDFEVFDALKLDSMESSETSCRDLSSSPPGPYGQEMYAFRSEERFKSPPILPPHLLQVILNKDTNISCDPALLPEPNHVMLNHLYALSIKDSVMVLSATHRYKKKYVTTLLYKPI
T2 sequence (P54619 whole entry L129D/V130D): as the sequence (P54619 whole entry V276G/L277G) above, with L129D, V130D, G276V, G277L counted along it
T2 sequence (P54646 whole entry): as the sequence (P54646 whole entry) above
T2 sequence (O43741 whole entry partner): as the sequence (O43741 whole entry partner) above

Row | Compound | Activation (maximal) ([1]; α2β2γ1 CBS3 mutant, 0.2 mM ATP) | IC50 ([1]; α2β2γ1 CBS3 mutant, 0.2 mM ATP) | Activation (maximal) ([1]; α2β2γ1 CBS3 mutant, 5.0 mM ATP) | IC50 ([1]; α2β2γ1 CBS3 mutant, 5.0 mM ATP) | protective effect of nucleotide against PPM1A in the mutant [2] | Kd [3, 4] | increase of EC50 relative to WT ([1]; α2β2γ1 CBS3 mutant vs WT, 5 mM ATP) | EC50 ([1]; α2β2γ1 CBS3 mutant, 0.2 mM ATP) | IC50/EC50 ([1]; α2β2γ1 CBS3 mutant, 0.2 mM ATP) | activation over basal remaining ([1]; α2β2γ1 CBS3 mutant, 0.2 mM ATP) | EC50 ([1]; α2β2γ1 CBS3 mutant, 5.0 mM ATP) | IC50/EC50 ([1]; α2β2γ1 CBS3 mutant, 5.0 mM ATP) | Kd ([3]; various bacterially expressed heterotrimers, read-out: Kd, AMP-binding site of high affinity) | Kd ([3]; various bacterially expressed heterotrimers, read-out: Kd, AMP-binding site of low affinity)
1 | Nc1ncnc2c1ncn2[C@@H]1O[C@H](COP(=O)(O)OP(=O)(O)O)[C@@H](O)[C@H]1O [ADP] | did not cause allosteric activation and none | 500 µM | essentially abolished allosteric activation | 7600 µM | unaffected | 12 to 24 µM |  |  |  |  |  |  |  | 
2 | Nc1ncnc2c1ncn2[C@@H]1O[C@H](COP(=O)(O)O)[C@@H](O)[C@H]1O [AMP] | 1.2 (1.1-1.2) fold | 6100 µM | 2.0- to 2.5 fold and 2.3 (2.1-2.7) fold | 40000 µM | unaffected | 1 to 2 µM | 10- to 20 fold | 2.9 µM | 2100 | 20% | 370 µM | 110 | 2 to 4 µM | 40 to 400 µM
